Assay results published in US20260250318A1, “COMPOSITIONS AND METHODS FOR CROSSING THE BLOOD BRAIN BARRIER” (VOYAGER THERAPEUTICS, INC., priority 2022, published 2026).

Tests used:
brain = assay: Matured TTM-001 and TTM-002 variants, NGS enrichment in mouse brain; format: in vivo, mice; settings: NGS fold-enrichment, relative to AAV9 control
[1] = tested on: brains, heart, liver, muscle, and DRG of the NHPs; assay: Maturation of TTM-001 and TTM-002 capsids, NGS enrichment in NHP tissues; format: in vivo; settings: relative to AAV9 control
Method in brief: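 Variants carry mutations within and flanking the loop IV peptide insert: positions 450–466 were triplet-randomized, while positions 449–466 received low-frequency point mutations. The combined pool went into two NHPs, and each peptide was scored by NGS enrichment ratio against AAV9.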

[2] = NGS fold-enrichment of RNA, NHP brain
[3] = NGS fold-enrichment, DRG of NHPs
[4] = NGS fold-enrichment, NHP liver DNA
[5] = NGS fold-enrichment, NHP liver RNA
[6] = NGS fold-enrichment, NHP muscle
[7] = NGS fold-enrichment, RNA, brain of NHPs
[8] = NGS fold-enrichment, heart of NHPs
[9] = NGS fold-enrichment, liver DNA of NHPs
[10] = NGS fold-enrichment, liver RNA of NHPs
[11] = NGS fold-enrichment, muscle of NHPs

Row | Sequence | Fold Enrichment relative to AAV9, Brain (Mouse) (brain; brain of mice) [fold] | Fold Enrichment relative to AAV9, Brain (Mouse) (brain; mouse brain) [fold] | Fold Enrichment relative to AAV9, Brain (NHP) [1, 2] [fold] | Fold Enrichment relative to AAV9, DRG (NHP) [1, 3] [fold] | Fold Enrichment relative to AAV9, DRG (NHP) ([1]; NGS fold-enrichment, NHP DRG) [fold] | Fold Enrichment relative to AAV9, Heart (NHP) ([1]; NGS fold-enrichment, NHP heart) [fold] | Fold Enrichment relative to AAV9, Liver DNA (NHP) [1, 4] [fold] | Fold Enrichment relative to AAV9, Liver RNA (NHP) [1, 5] [fold] | Fold Enrichment relative to AAV9, Muscle (NHP) [1, 6] [fold] | Fold Enrichment relative to AAV9, Brain (NHP) [1, 7] [fold] | Fold Enrichment relative to AAV9, Heart (NHP) [1, 8] [fold] | Fold Enrichment relative to AAV9, Liver DNA (NHP) [1, 9] [fold] | Fold Enrichment relative to AAV9, Liver RNA (NHP) [1, 10] [fold] | Fold Enrichment relative to AAV9, Muscle (NHP) [1, 11] [fold]
1 | KTSSGSGSPHSKAQYQQT | 58.143 | 58.143 | 87.304 | 0.000 | 0.000 | 0.000 | 0.299 | 0.000 | 0.000 | 87.304 | 0.000 | 0.299 | 0.000 | 0.000
2 | KTSYGNGSPHSKAQNQQT | 105.894 | 105.894 | 105.937 | 0.000 | 0.000 | 0.000 | 0.114 | 0.000 | 0.000 | 105.937 | 0.000 | 0.114 | 0.000 | 0.000
3 | KTTNGHDSPHKSGQNLLT |  | 15.192 | 77.738 |  | 0.130 | 0.064 | 0.326 | 0.424 | 0.185 |  |  |  |  | 
4 | KTTNGHDSPHKSGQNQQG |  | 10.555 | 85.113 |  | 0.000 | 0.107 | 0.017 | 0.000 | 0.000 |  |  |  |  | 
5 | KTTNGHDSPHKSGQTQLT |  | 17.885 | 115.637 |  | 0.000 | 0.283 | 0.321 | 0.052 | 0.000 |  |  |  |  | 
6 | KTTNGQDSPHKSGQNQQS |  | 7.592 | 92.419 |  | 0.000 | 0.037 | 0.079 | 0.000 | 0.043 |  |  |  |  | 
7 | KTTNGSGSPHSKAHNQLT | 65.505 |  |  | 0.000 |  |  |  |  |  | 69.062 | 0.000 | 0.000 | 0.708 | 0.000
8 | KTTNGSGSPHSKAQYQHT | 83.337 |  |  | 0.000 |  |  |  |  |  | 67.325 | 0.000 | 0.080 | 1.378 | 0.000
9 | KTVDGHDSPHKSGQKQQT |  | 7.200 | 78.802 |  | 0.000 | 0.069 | 0.342 | 0.157 | 0.000 |  |  |  |  | 
10 | KTVHGNGSPHSKAQNQQT | 97.003 | 97.003 | 90.073 | 0.000 | 0.000 | 0.000 | 0.304 | 0.000 | 0.000 | 90.073 | 0.000 | 0.304 | 0.000 | 0.000
